Test results reported in PMC9105976, “A Novel β-Hairpin Peptide Z-d14CFR Enhances Multidrug-Resistant Bacterial Clearance in a Murine Model of Mastitis” (International Journal of Molecular Sciences, 2022).
Positions of bridges follow the written chain, without caps; N, C: chain ends. Residues, ends and D or L forms follow the SMILES beside them.

Legend:
[1] = test system: Proteus vulgaris CVCC1971; assay: MIC/MBC, microdilution broth method; assay type: cell-based; details: Proteus vulgaris CVCC1971; kills 99.9% bacteria; NA = no activity at 1 mg/mL
Method: (§1) The MIC of peptides against bacteria was carried out by the microdilution broth method. The bacterial culture (OD 600 = 0.6) was diluted in 10 mM PBS to 1 × 10^6 CFU/mL. The bacterial suspension (100 μL) was added to 96-well plates, and the same volume of peptides, ampicillin or gentamicin (concentrations ranging from 0.001 to 2 mg/mL) were then added to the same 96-well plates, respectively.

[2] = test system: Streptococcus suis CVCC3307; assay: MIC/MBC, microdilution broth method; assay type: cell-based; details: Streptococcus suis CVCC3307; kills 99.9% bacteria; NA = no activity at 1 mg/mL
Method: as §1

[3] = test system: MRSA ATCC33591; assay: MIC/MBC, microdilution broth method; assay type: cell-based, S. aureus; details: MRSA ATCC33591; kills 99.9% bacteria; NA = no activity at 1 mg/mL
Method: as §1

[4] = Retention time of peptide in HPLC (hydrophobicity); assay type: physicochemical; details: used as measure of hydrophobicity (order Z-d14CR > Z-d14CF > Z-d13 > Z-d14CFR > Z-d14C); column and gradient not given
[5] = test system: mammalian cells (MAC-T, Hela, Vero); assay: Cytotoxicity, CCK8; assay type: cell-based; details: at 1 mg/mL, 24 h in DMEM with 1% FBS, CCK8, OD 450 nm, three independent experiments
Method: The cytotoxicity of peptides to mammalian cells was carried out according to CCK8 instructions (Beyotime, Shanghai, China). 1 × 10^4 Hela, Vero and MAC-T cells were, respectively, added in 96-well plates and cultured at 37 °C with 5% CO2 for 24 h. Then, the cells were washed thrice with 10 mM PBS to remove medium and then incubated with 100 μL peptide in DMEM with 1 % (v/v) FBS (finally concentration ranging from 1 mg/mL to 0.001 mg/mL). After incubating at 37 °C with 5% CO2 for 24 h, 10 μL CCK8 was added to the cells and then continued to be incubated at 37 °C for 4 h. CCK8 interacted with PBS without cells as the blank control. The absorbance of the mixture was measured at 450 nm and cell viability was calculated as follows: Cell viability (%) = (OD 450 peptide − OD 450 Blank)/(OD 450 PBS − OD 450 Blank) × 100%.

[6] = test system: E. coli ATCC25922; assay: Time-killing assay; assay type: cell-based; details: 2 MIC, CFU counts at 0-24 h
Method: (§2) E. coli ATCC25922 and S. aureus ATCC29213 in the mid-logarithmic phase were diluted into 1 × 10^6 CFU/mL with 10 mM PBS, and incubated with 10 μL Z-d14CFR in a final concentration of 2 MIC. At 0, 4, 8, 12, 16, 20, and 24 h, the mixture was serial diluted and spread onto LB agar plates. After 16 h of cultivation, the CFU number of bacteria was counted to evaluate the ability of peptide to kill bacteria. The bacteria treated with 10 mM PBS as a negative control, and meanwhile incubated with 2 MIC gentamicin or polymyxin B as a positive control.

[7] = test system: S. aureus ATCC29213; assay: Time-killing assay; assay type: cell-based; details: 2 MIC, CFU counts at 0-24 h
Method: as §2

[8] = test system: E. coli ATCC25922 and S. aureus ATCC29213; assay: Cytoplasmic membrane depolarization, DiSC3(5); assay type: cell-based; details: 2 MIC to 1/4 MIC; fluorescence 622/670 nm, 30 min
Method: The ability of Z-d14CFR to disrupt inner cytoplasmic membrane potential of E. coli ATCC25922 and S. aureus ATCC29213 was monitored using 3,3-dipropylthiadicarbocyanine iodide DiSC3(5) (Macklin, D864435, Shanghai, China) as previous mentioned. The bacteria were washed and resuspended with 5 mM HEPES, pH 7.4, containing 5 mM glucose and 100 mM KCl buffer into 1 × 10^6 CFU/mL. DiSC3(5) was subsequently added and incubated at 37 °C in the dark for 15 min until the fluorescence had stabilized. Z-d14CFR in a final concentration of 2 MIC, 1 MIC, 1/2 MIC and 1/4 MIC was added to the mixture. The fluorescence intensity was continuously monitored for 30 min by an excitation wavelength of 622 nm and an emission wavelength of 670 nm.

[9] = test system: E. coli ATCC25922; assay: Extracellular β-galactosidase assay; assay type: cell-based; details: 2 MIC, 4 h at 37 °C, ONPG, OD 420 nm, compared with PBS, p < 0.001
Method: (§3) E. coli ATCC25922 and S. aureus ATCC29213 were washed and resuspended with 10 mM PBS into OD 600 = 0.5. […] Then, 190 μL of the supernatants was incubated with 10 μL 2-nitrophenyl-β-d-galactopyranoside, ONPG (Macklin, N814742, Shanghai, China) at a final concentration of 3 mM at 37 °C for 30 min. The absorbance at 420 nm was measured to assess the level of β-galactosidase outside the cells. The bacteria treated with 10 mM PBS in absence of peptide as the negative control and treated with ultrasonication as the positive control.

[10] = test system: S. aureus ATCC29213; assay: Extracellular β-galactosidase assay; assay type: cell-based; details: 2 MIC, 4 h at 37 °C, ONPG, OD 420 nm, compared with PBS, p < 0.001
Method: as §3

[11] = test system: E. coli ATCC25922; assay: Cytoplasmic membrane integrity, SYTO 9/PI flow cytometry; assay type: cell-based; details: 2 MIC, 3 h, flow cytometry, 10,000 cells, PBS 0%
Method: (§4) E. coli ATCC25922 and S. aureus ATCC29213 (OD600 = 0.6) were washed and diluted into 1 × 10^8 CFU/mL in sterile saline. The cells were treated with Z-d14CFR in the final concentration of 2 MIC for 3 h. Following that, the same volume of a mixture contains SYTO 9 dye and PI (Thermo Fisher, Waltham, MA, USA) (v/v, 1:1) was added to bacteria and incubated at 37 °C in the dark for 15 min. The bacteria were washed with saline to remove the unbound dye and then observed with a Nikon A1 confocal laser scanning microscope.
(§5) In order to further determine the percentage of PI-positive cells, the data of 10,000 cells were collected and analyzed by BD LSRFortessa flow cytometer.

[12] = test system: S. aureus ATCC29213; assay: as above; assay type: cell-based; details: 2 MIC, 3 h, flow cytometry, 10,000 cells, PBS 0.4%
Method: as §4, §5

[13] = test system: E. coli CAU201919; assay: Murine model of mastitis induced by MDR E. coli; assay type: in vivo, mice; details: Z-d14CFR 25 μg or gentamicin 10 μg via milk duct at 3 h and 15 h, 27 h post-infection
From the text: In this study, the therapeutic effects of Z-d14CFR on MDR bacterial infection in vivo was verified by a murine mastitis model. E. coli CAU201919 was used to establish the mastitis model because it is highly pathogenic compared with other bacteria and is resistant to various antibiotics, such as ampicillin, amoxicillin and cefazolin. In brief, 45 Crl:CD1 female mice at 17–18 days of gestation were purchased from Beijing Vital River Laboratory Animal Technology Co., Ltd. (Beijing, China) and kept in the Laboratory Animal Center of China Agricultural University (Beijing, China). At 72 h post-partum, the mice were randomly divided into 5 groups (n = 9 per group) and the offspring were removed 3 h before of administration. The mice were anesthetized by Zoletil 50 (55 mg/kg body weight, WK001, Virbac, France) and held under the stereoscope in a supine position. Mice in the saline group and Z-d14CFR group were intraductal inoculated with 50 μL normal saline or 50 μL Z-d14CFR (25 μg each teat) alone to the milk duct. Mice in other groups were inoculated with 25 μL (1 × 10^5 CFU) E. coli CAU201919 suspension to the milk duct, and after 3 h of E. coli challenged, mice were treated with 25 μL saline, Z-d14CFR (25 μg) or gentamicin (10 μg), respectively, via milk duct injection. Then the mice were given the same treatment after 15 h of E. coli challenged. After 27 h of E. coli challenged, all mice were euthanized. The mammary gland tissues were collected to carry out bacterial count, histopathological examination and inflammatory factors examination.

## CC(C)[C@@H]1NC(=O)[C@@H]2CSSC[C@H](NC(=O)[C@H](CCCNC(=N)N)NC(=O)[C@@H](NC(=O)CNC(=O)[C@@H](N)CCCNC(=N)N)CSSC[C@@H](C(=O)N[C@@H](CCCNC(=N)N)C(N)=O)NC1=O)C(=O)N[C@@H](CC(N)=O)C(=O)N[C@@H](CO)C(=O)N[C@@H](CCCCN)C(=O)N[C@@H](CO)C(=O)N[C@@H](Cc1ccccc1)C(=O)N2 [Z-d14CFR] (H-RGCRCNSKSFCVCR-NH2; disulfide 3-13, 5-11; N-terminus assumed)
[1]
  MBC: NA (NA) (No antimicrobial activity at 1 mg/mL)
[2]
  MBC: NA (NA) (No antimicrobial activity at 1 mg/mL)
[3]
  MBC: NA (NA) (No antimicrobial activity at 1 mg/mL)
[4]
  RT, retention time of peptide in HPLC: 7.820 min
[5]
  cytotoxicity: < 10%
[6]; 1 × 10^6 CFU/mL
  time to kill bacteria in the logarithmic phase: ≤ 4 h
[6]
  time to kill bacteria in the plateau: ≤ 16 h
[7]; 1 × 10^6 CFU/mL
  time to kill bacteria in the logarithmic phase: ≤ 4 h
[7]
  time to kill bacteria in the plateau: ≤ 16 h
[8]
  DiSC3(5) release (cytoplasmic membrane depolarization): remarkable releasing of DiSC3(5)
[9]
  extracellular release of β-galactosidase: significantly induced the release of β-galactosidase
[10]
  extracellular release of β-galactosidase: significantly induced the release of β-galactosidase
[11]
  PI-positive bacteria: 12.5%
[12]
  PI-positive bacteria: 3.4%
[13]; Crl:CD1 mice, 1 × 10^5 CFU E. coli CAU201919 intraductal, infected only about 3.71 × 10^9, p < 0.001
  bacterial burden in the mammary gland: 3.57 × 10^8 CFU/g tissue
[13]
  histopathologic damage of the mammary gland (acinar wall thickening, neutrophils infiltration): obviously ameliorated
[13]; p < 0.001
  increase in IL-1β mRNA expression in the mammary gland: attenuated
  increase in TNF-α mRNA expression in the mammary gland: attenuated
